Assay results published in ChEMBL document CHEMBL3414430 (J Med Chem, 2015).
In brackets after ≈: the same amount, converted by molar mass. Activity calls are given as the source filed them. The rule behind the calls is not given here.

How the values were obtained:
[1] = target: T1, Protein deacetylase HDAC6 (Homo sapiens, UniProt Q9UBN7)
T1 sequence (Q9UBN7 whole entry): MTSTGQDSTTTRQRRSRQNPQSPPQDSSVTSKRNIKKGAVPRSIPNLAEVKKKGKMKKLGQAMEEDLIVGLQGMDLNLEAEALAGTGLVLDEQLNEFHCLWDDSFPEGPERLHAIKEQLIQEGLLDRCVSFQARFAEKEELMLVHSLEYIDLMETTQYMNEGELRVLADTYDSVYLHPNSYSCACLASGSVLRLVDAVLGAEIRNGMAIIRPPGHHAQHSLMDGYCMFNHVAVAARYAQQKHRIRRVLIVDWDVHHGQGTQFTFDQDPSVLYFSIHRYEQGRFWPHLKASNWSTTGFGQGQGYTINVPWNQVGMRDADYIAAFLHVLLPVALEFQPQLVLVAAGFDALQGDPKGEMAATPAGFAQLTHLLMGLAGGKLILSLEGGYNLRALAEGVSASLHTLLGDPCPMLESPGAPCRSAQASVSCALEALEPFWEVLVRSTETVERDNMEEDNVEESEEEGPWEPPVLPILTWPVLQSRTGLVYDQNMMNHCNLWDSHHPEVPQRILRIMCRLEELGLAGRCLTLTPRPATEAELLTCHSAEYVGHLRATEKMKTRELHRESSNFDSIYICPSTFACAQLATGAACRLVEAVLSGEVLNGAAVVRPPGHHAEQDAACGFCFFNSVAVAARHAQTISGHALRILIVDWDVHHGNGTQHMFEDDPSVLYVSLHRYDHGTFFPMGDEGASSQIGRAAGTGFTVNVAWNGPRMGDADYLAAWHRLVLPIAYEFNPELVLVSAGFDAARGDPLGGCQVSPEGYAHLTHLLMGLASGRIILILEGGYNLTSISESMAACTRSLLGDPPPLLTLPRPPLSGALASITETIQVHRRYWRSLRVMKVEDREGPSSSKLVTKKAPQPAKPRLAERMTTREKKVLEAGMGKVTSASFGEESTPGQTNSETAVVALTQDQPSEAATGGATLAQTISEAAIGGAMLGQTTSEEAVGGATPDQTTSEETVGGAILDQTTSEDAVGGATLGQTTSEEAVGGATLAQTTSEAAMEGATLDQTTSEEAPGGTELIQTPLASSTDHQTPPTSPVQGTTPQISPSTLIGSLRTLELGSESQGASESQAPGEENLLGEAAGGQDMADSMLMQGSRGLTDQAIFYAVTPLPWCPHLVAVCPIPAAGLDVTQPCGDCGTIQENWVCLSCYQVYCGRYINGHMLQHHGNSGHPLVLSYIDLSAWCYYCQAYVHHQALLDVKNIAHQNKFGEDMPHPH
Description: Inhibition of HDAC6 in human A549 cells assessed as induction of tubulin acetylation after 17 to 18 hrs by ELISA

Histone deacetylase 1 = Histone deacetylase 1 (Homo sapiens, UniProt Q13547)
Histone deacetylase 1, sequence (Q13547 whole entry): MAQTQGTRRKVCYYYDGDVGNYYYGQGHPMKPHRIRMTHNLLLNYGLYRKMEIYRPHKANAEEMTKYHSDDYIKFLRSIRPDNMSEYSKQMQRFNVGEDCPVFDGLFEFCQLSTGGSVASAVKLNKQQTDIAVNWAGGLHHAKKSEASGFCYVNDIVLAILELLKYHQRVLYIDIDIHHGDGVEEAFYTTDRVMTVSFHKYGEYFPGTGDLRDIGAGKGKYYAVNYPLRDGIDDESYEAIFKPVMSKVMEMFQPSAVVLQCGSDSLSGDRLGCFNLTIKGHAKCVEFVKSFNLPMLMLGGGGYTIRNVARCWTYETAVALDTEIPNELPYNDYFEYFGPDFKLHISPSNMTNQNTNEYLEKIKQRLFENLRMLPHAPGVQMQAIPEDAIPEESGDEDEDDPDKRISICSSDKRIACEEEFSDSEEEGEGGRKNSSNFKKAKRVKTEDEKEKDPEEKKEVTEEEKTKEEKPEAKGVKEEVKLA
Description: Inhibition of HDAC1 (unknown origin) using RHKK(Ac)AMC as substrate

[2] = Solubility of the compound in PBS measured after overnight incubation by LYSA assay; assay type: physicochemical
Histone deacetylase 8 = target: T2, Histone deacetylase 8 (Homo sapiens, UniProt Q9BY41)
T2 sequence (Q9BY41 whole entry): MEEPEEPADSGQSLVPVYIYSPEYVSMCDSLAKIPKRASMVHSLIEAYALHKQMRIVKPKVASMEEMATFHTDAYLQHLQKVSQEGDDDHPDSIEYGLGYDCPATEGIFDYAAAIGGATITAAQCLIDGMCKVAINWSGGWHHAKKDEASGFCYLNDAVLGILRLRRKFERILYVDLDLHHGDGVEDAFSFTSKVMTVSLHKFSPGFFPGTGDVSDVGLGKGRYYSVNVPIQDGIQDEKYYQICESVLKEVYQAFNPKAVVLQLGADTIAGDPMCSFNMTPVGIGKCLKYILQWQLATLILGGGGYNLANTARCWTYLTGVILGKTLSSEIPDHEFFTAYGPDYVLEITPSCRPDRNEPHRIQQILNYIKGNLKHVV
Description: Inhibition of HDAC8 (unknown origin) using RHK(Ac)K(Ac)AMC as substrate

[3] = target: T1, Protein deacetylase HDAC6; remark: listed apart in the source
Description: Inhibition of HDAC6 (unknown origin) using RHKK(Ac)AMC as substrate

Mus musculus [4] = experiment: AUC (0 to infinity) in ICR mouse at 10 mg/kg, iv; assay type: ADME, organism-based, Plasma; parameters: time infinity, dose 10 mg/kg, route intravenous; conditions: in vivo
[5] = Plasma clearance in ICR mouse; assay type: ADME, organism-based
[6] = Oral bioavailability in ICR mouse at 100 mg/kg; assay type: ADME, organism-based; conditions: in vivo
[7] = target: T3, Histone deacetylase 1/2/3/6 (Homo sapiens) (UniProt Q13547+O15379+Q9UBN7+Q92769); experiment: Inhibition of HDAC1/HDAC2/HDAC3 in human HeLa cells assessed as induction of p21 gene expression at 3 to 10 uM after 15 hrs by luciferase reporter gene assay; assay type: cell-based
T3 sequence (O15379 whole entry, looked up, one chain of several): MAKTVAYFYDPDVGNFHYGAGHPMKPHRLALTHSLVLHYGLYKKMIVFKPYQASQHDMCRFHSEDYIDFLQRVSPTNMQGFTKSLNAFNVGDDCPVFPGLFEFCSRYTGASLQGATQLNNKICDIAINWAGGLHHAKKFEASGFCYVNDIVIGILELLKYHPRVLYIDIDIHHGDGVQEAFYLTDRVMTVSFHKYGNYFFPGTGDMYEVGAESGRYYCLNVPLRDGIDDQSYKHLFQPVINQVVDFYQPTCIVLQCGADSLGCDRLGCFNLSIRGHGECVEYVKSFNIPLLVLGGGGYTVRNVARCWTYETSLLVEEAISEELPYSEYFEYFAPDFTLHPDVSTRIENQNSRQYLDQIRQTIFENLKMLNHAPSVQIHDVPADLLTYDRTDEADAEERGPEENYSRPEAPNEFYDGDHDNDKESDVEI
T3 sequence (Q13547 whole entry, looked up, one chain of several): as the sequence (Q13547 whole entry) above
T3 sequence (Q92769 whole entry, looked up, one chain of several): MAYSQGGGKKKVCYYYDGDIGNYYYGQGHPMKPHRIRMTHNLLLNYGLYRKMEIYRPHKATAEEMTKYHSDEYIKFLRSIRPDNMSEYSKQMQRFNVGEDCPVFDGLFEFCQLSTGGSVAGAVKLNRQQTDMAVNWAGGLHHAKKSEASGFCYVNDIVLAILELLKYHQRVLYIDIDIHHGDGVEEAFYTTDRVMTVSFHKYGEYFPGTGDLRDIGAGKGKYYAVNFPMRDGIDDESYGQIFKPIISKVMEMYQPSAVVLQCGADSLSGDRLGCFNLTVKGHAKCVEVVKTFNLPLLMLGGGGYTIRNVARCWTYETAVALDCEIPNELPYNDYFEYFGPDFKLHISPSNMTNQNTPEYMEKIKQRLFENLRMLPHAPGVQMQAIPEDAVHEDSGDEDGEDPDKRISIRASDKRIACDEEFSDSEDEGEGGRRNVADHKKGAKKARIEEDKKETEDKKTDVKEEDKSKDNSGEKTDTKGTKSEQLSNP

[8] = Intrinsic clearance in mouse liver microsomes at 1 uM preincubated for 10 mins followed by NADPH addition measured over 30 mins by LC-MS/MS analysis; assay type: ADME; conditions: read-out: CLH
[9] = Intrinsic clearance in human liver microsomes at 1 uM preincubated for 10 mins followed by NADPH addition measured over 30 mins by LC-MS/MS analysis; assay type: ADME; conditions: read-out: CLH
[10] = Half life in ICR mouse at 10 mg/kg, iv; assay type: ADME, organism-based; parameters: dose 10 mg/kg, route intravenous; conditions: in vivo
[11] = Cmax in ICR mouse at 100 mg/kg, po; assay type: ADME, organism-based; parameters: dose 100 mg/kg, route oral; conditions: in vivo
Mus musculus [12] = experiment: AUC (0 to infinity) in ICR mouse at 100 mg/kg, po; assay type: ADME, organism-based, Plasma; parameters: time infinity, dose 100 mg/kg, route oral; conditions: in vivo
[13] = target: T3, Histone deacetylase 1/2/3/6 (Homo sapiens); experiment: Inhibition of HDAC1/HDAC2/HDAC3 in human HeLa cells assessed as induction of p21 gene expression at 10 uM after 15 hrs by luciferase reporter gene assay; assay type: cell-based
[14] = target: T3, Histone deacetylase 1/2/3/6 (Homo sapiens); conditions: HeLa, at 10 µM
Description: Inhibition of HDAC1/HDAC2/HDAC3 in human HeLa cells assessed as induction of p21 gene expression at 10 uM after 15 hrs by luciferase reporter gene assay relative to HDAC1 inhibitor SNDX-275

Mus musculus [15] = experiment: AUC (0 to infinity) in ICR mouse at 50 mg/kg, po; assay type: ADME, organism-based, Plasma; parameters: time infinity, dose 50 mg/kg, route oral; conditions: in vivo
[16] = Oral bioavailability in ICR mouse at 50 mg/kg; assay type: ADME, organism-based; conditions: in vivo

Compound	EC50 [1] [nM]	IC50 (Histone deacetylase 1) [nM]	solubility [2] [µg/mL]	IC50 (Histone deacetylase 8) [nM]	IC50 [3] [nM]	also measured
N#Cc1ccc(N2CCC(Nc3ccc(C(=O)NO)cc3)C2=O)cc1 (stereo unspecified)	3100	12800	28 (≈ 83.2 µM)	160	100	
O=C(NO)c1ccc(NC2CCN(c3ccc(Cl)cc3)C2=O)cc1 (stereo unspecified)		14300	< 1	120	160	AUC (Mus musculus [4]): 1065 µg/L/h; clearance [5]: 156 mL/min/kg; bioavailability [6]: 3%; inhibition [7]: inactive; CLint scaled at 1 µM [8]: 44 mL/min/kg; CLint scaled at 1 µM [9]: 8 mL/min/kg; half-life [10]: 66 min; Cmax [11]: 57 ng/mL; AUC (Mus musculus [12]): 278 µg/L/h
O=C(NO)c1ccc(NC2CCN(CCc3ccccc3)C2=O)cc1 (stereo unspecified)	16600	8880	63 (≈ 186 µM)	260	240	
O=C(NO)c1ccc(NC2CCN(c3ccc(Cl)cc3)C2=O)c(Cl)c1 (stereo unspecified)	17400	29400	< 1	22400	1070	
C[C@@]1(Nc2ccc(C(=O)NO)cc2)CCN(c2ccc(Cl)cc2)C1=O	1900	24500	34 (≈ 94.5 µM)	590	260	inhibition [7]: inactive
CS(=O)(=O)c1ccc(N2CCC(Nc3ccc(C(=O)NO)cc3)C2=O)cc1 (stereo unspecified)		17100	97 (≈ 249 µM)	120	140	
CC1(Nc2ccc(C(=O)NO)cc2)CCN(c2ccccc2)C1=O (stereo unspecified)	2600	> 100000	415 (≈ 1280 µM)	590	460	
O=C(NO)c1ccc(NC2CCN(c3ccc(Cl)c(Cl)c3)C2=O)cc1 (stereo unspecified)		15900	< 1	160	63	
O=C(NO)c1ccc(NC2CCN(c3ccc(Cl)cc3)C2=O)cc1F (stereo unspecified)	13500		< 1			
CC1(Nc2ccc(C(=O)NO)cc2)CCN(c2ccc3ncccc3c2)C1=O (stereo unspecified)		6020	17 (≈ 45.2 µM)	76	18	inhibition [13]: Active
CN(c1ccc(C(=O)NO)cc1)C1CCN(c2ccccc2)C1=O (stereo unspecified)	> 30000	> 100000		8200	48800	inhibition [14]: inactive
O=C(NO)c1ccc(NC2CC(=O)N(c3ccccc3)C2)cc1 (stereo unspecified)	18100	> 100000	> 350	6250	2260	inhibition [14]: inactive
O=C(NO)c1ccc(NC2CCN(c3ccc(Cl)cc3)C2)cc1 (stereo unspecified)		19200	< 1	860	860	CLint scaled at 1 µM [8]: 53 mL/min/kg
O=C(NO)c1ccc(NC2CCN(Cc3ccccc3)C2=O)cc1 (stereo unspecified)		11700	> 385	760	510	
O=C(NO)c1ccc(NC2CCN(c3ccc(C(F)(F)F)cc3)C2=O)cc1 (stereo unspecified)	16200	26700	43 (≈ 113 µM)	110	250	
O=C(NO)c1ccc2c(c1)C[C@H](Nc1nccc(-c3cccnc3)n1)CC2						clearance [5]: 99 mL/min/kg
O=C(NO)c1ccc(OC2CCN(c3ccccc3)C2=O)cc1 (stereo unspecified)	> 30000	> 100000	203 (≈ 650 µM)	4920	5740	inhibition [14]: inactive
CN(C)CCOc1cccc(N2CCC(Nc3ccc(C(=O)NO)cc3)C2=O)c1 (stereo unspecified)	2000		> 400			
O=C(NO)c1ccc(NC2CCN(c3ccccc3Cl)C2=O)cc1 (stereo unspecified)		21800	24 (≈ 69.4 µM)	150	360	
O=C(CCCCCCC(=O)Nc1ccccc1)NO [VORINOSTAT]			> 385			AUC (Mus musculus [4]): 1486 µg/L/h; clearance [5]: 112 mL/min/kg; AUC (Mus musculus [15]): 619 µg/L/h; bioavailability [16]: 8%; CLint scaled at 1 µM [8]: 33 mL/min/kg; CLint scaled at 1 µM [9]: 0.1 mL/min/kg; half-life [10]: 24 min
O=C(NO)c1ccc2c(c1)CC(Nc1nccc(-c3cccnc3)n1)CN2 (stereo unspecified)		9960	210 (≈ 579 µM)		12	clearance [5]: 74 mL/min/kg; inhibition [14]: inactive
O=C(NO)c1ccc(NC2CCN(c3cccc(Cl)c3)C2=O)cc1 (stereo unspecified)		12100	17 (≈ 49.2 µM)	180	90	
O=C(NO)c1ccc(NC2CCN(c3ccc4ccccc4c3)C2=O)cc1 (stereo unspecified)	1100		< 1			
CNc1ccc(C(=O)NO)cc1	19200	52300		940	1770	inhibition [14]: inactive
CC1(Nc2ccc(C(=O)NO)cc2)CCN(c2ccc(Cl)cc2)C1=O (stereo unspecified)		11200	6 (≈ 16.7 µM)	410	21	inhibition [13]: Active
